Source: patent publication US20110223642A1, “METHOD FOR INHIBITING BACTERIA GROWTH DURING ETHANOL FERMENTATION” (priority 2010, published 2011)

System: gram positive bacteria
Experiment: Inhibition of gram positive bacteria growth in corn mash media
Assay type: cell-based
Details: typical corn mash media
Description: If added just to a propagator the isopellets should be diluted down to 2 to 20 ppm in a fermenter. The hop acids employed are not limited to isomerized hop acids but can also be stabilized unisomerized hop pellets. The stabilized hop pellet, can be isomerized into isoalpha acids once placed into 70° C. or hotter hot water for thirty or more minutes. Once this isomerization is completed the mixture can be added to the yeast propagator or fermenter. The unexpected results include reduced levels of isoalpha acid required to inhibit gram positive bacteria growth, better antibacterial protection toward the end of fermentation, and increased yeast alcohol tolerance. Typically about 15 ppm of isoalpha acid is required to inhibit most gram positive bacteria growth in a typical corn mash media; however, we discovered that isomerized hop pellets made in accordance with the present invention can inhibit bacteria growth at an isoalpha acid dosage of about 12 ppm. While not wishing to be bound by theory, it is believed iso-pellets made in accordance with the present invention also contain beta acids, which are very effective at inhibiting gram positive bacteria growth. Unfortunately beta acids ordinarily are not soluble in corn mash or cereal fermentations, and thus their antibacterial effect is worthless. […]

isoalpha acid
isoalpha acid dosage required to inhibit gram positive bacteria growth: about 15 ppm
